Test results taken from ChEMBL document CHEMBL3046876, “Effect of Buprofezin on Oviposition of Brown Planthopper, Nilaparvata lugens, at Sub-lethal Dose” (1996).

Assays:
Format in all cases: functional
Nilaparvata lugens [1] = assay: Effect on life span in Nilaparvata lugens (brown planthopper) adult at 0.016 ppm measured after 7 days relative to control
Nilaparvata lugens [2] = assay: Insecticidal activity against Nilaparvata lugens (brown planthopper) fifth-instar nymphs assessed as mortality at 0.00064 ppm measured after 7 days; settings: 168 h
Nilaparvata lugens [3] = assay: Effect on egg maturity in Nilaparvata lugens (brown planthopper) at 0.00064 ppm measured after 7 days relative to control
Nilaparvata lugens [4] = assay: Insecticidal activity against Nilaparvata lugens (brown planthopper) assessed as mortality at 50 ppm measured after 7 days relative to control; settings: 168 h
Nilaparvata lugens [5] = assay: Effect on life span in Nilaparvata lugens (brown planthopper) adult at 0.4 ppm measured after 7 days relative to control
Nilaparvata lugens [6] = assay: Effect on oviposition in Nilaparvata lugens (brown planthopper) assessed as eggs laid at 10 ppm measured after 7 days relative to control
Nilaparvata lugens [7] = assay: Insecticidal activity against Nilaparvata lugens (brown planthopper) assessed as mortality at 2 ppm measured after 7 days relative to control; settings: 168 h
Nilaparvata lugens [8] = assay: Insecticidal activity against Nilaparvata lugens (brown planthopper) emerged female adult assessed as mortality at 0.016 ppm measured after 7 days relative to control; settings: 168 h
Nilaparvata lugens [9] = assay: Effect on development of ovarioles in Nilaparvata lugens (brown planthopper) assessed as number of ovarioles at 0.4 ppm measured after 7 days relative to control
Nilaparvata lugens [10] = assay: Effect on oviposition in Nilaparvata lugens (brown planthopper) assessed as eggs laid at 0.016 ppm measured after 7 days relative to control
Nilaparvata lugens [11] = assay: Insecticidal activity against Nilaparvata lugens (brown planthopper) emerged female adult assessed as mortality at 2 ppm measured after 7 days relative to control; settings: 168 h
Nilaparvata lugens [12] = assay: Insecticidal activity against Nilaparvata lugens (brown planthopper) fifth-instar nymphs assessed as mortality at 10 ppm measured after 7 days; settings: 168 h
Nilaparvata lugens [13] = assay: Effect on hatchability in Nilaparvata lugens (brown planthopper) at 10 ppm measured after 7 days relative to control
Nilaparvata lugens [14] = assay: Insecticidal activity against Nilaparvata lugens (brown planthopper) fifth-instar nymphs assessed as mortality at 0.4 ppm measured after 7 days; settings: 168 h
Nilaparvata lugens [15] = assay: Insecticidal activity against Nilaparvata lugens (brown planthopper) emerged female adult assessed as mortality at 0.0000256 ppm measured after 7 days relative to control; settings: 168 h
Nilaparvata lugens [16] = assay: Effect on life span in Nilaparvata lugens (brown planthopper) adult at 10 ppm measured after 7 days relative to control
Nilaparvata lugens [17] = assay: Insecticidal activity against Nilaparvata lugens (brown planthopper) fifth-instar nymphs assessed as mortality at 0.0032 ppm measured after 7 days; settings: 168 h
Nilaparvata lugens [18] = assay: Insecticidal activity against Nilaparvata lugens (brown planthopper) assessed as mortality at 0.08 ppm measured after 7 days relative to control; settings: 168 h
Nilaparvata lugens [19] = assay: Effect on oviposition in Nilaparvata lugens (brown planthopper) assessed as eggs laid at 0.0032 ppm measured after 7 days relative to control
Nilaparvata lugens [20] = assay: Insecticidal activity against Nilaparvata lugens (brown planthopper) emerged female adult assessed as mortality at 0.000128 ppm measured after 7 days relative to control; settings: 168 h
Nilaparvata lugens [21] = assay: Insecticidal activity against Nilaparvata lugens (brown planthopper) emerged female adult assessed as mortality at 0.0032 ppm measured after 7 days relative to control; settings: 168 h
Nilaparvata lugens [22] = assay: Insecticidal activity against Nilaparvata lugens (brown planthopper) fifth-instar nymphs assessed as mortality at 50 ppm measured after 7 days; settings: 168 h
Nilaparvata lugens [23] = assay: Insecticidal activity against Nilaparvata lugens (brown planthopper) assessed as mortality at 0.0032 ppm measured after 7 days relative to control; settings: 168 h
Nilaparvata lugens [24] = assay: Effect on development of ovarioles in Nilaparvata lugens (brown planthopper) assessed as number of ovarioles at 0.016 ppm measured after 7 days relative to control
Nilaparvata lugens [25] = assay: Insecticidal activity against Nilaparvata lugens (brown planthopper) assessed as mortality at 0.00064 ppm measured after 7 days relative to control; settings: 168 h
Nilaparvata lugens [26] = assay: Effect on hatchability in Nilaparvata lugens (brown planthopper) at 2 ppm measured after 7 days relative to control
Nilaparvata lugens [27] = assay: Insecticidal activity against Nilaparvata lugens (brown planthopper) assessed as mortality at 0.0000256 ppm measured after 7 days relative to control; settings: 168 h
Nilaparvata lugens [28] = assay: Effect on oviposition in Nilaparvata lugens (brown planthopper) assessed as eggs laid at 0.000128 ppm measured after 7 days relative to control
Nilaparvata lugens [29] = assay: Insecticidal activity against Nilaparvata lugens (brown planthopper) fifth-instar nymphs assessed as mortality at 0.016 ppm measured after 7 days; settings: 168 h
Nilaparvata lugens [30] = assay: Insecticidal activity against Nilaparvata lugens (brown planthopper) emerged female adult assessed as mortality at 0.4 ppm measured after 7 days relative to control; settings: 168 h
Nilaparvata lugens [31] = assay: Effect on oviposition in Nilaparvata lugens (brown planthopper) assessed as eggs laid at 2 ppm measured after 7 days relative to control
Nilaparvata lugens [32] = assay: Effect on egg maturity in Nilaparvata lugens (brown planthopper) at 0.016 ppm measured after 7 days relative to control
Nilaparvata lugens [33] = assay: Effect on hatchability in Nilaparvata lugens (brown planthopper) at 0.08 ppm measured after 7 days relative to control
Nilaparvata lugens [34] = assay: Insecticidal activity against Nilaparvata lugens (brown planthopper) assessed as mortality at 0.000128 ppm measured after 7 days relative to control; settings: 168 h
Nilaparvata lugens [35] = assay: Effect on egg maturity in Nilaparvata lugens (brown planthopper) at 0.4 ppm measured after 7 days relative to control
Nilaparvata lugens [36] = assay: Insecticidal activity against Nilaparvata lugens (brown planthopper) fifth-instar nymphs assessed as mortality at 0.000128 ppm measured after 7 days; settings: 168 h
Nilaparvata lugens [37] = assay: Effect on oviposition in Nilaparvata lugens (brown planthopper) assessed as eggs laid at 0.08 ppm measured after 7 days relative to control
Nilaparvata lugens [38] = assay: Effect on oviposition in Nilaparvata lugens (brown planthopper) assessed as eggs laid at 0.4 ppm measured after 7 days relative to control
Nilaparvata lugens [39] = assay: Effect on hatchability in Nilaparvata lugens (brown planthopper) at 0.016 ppm measured after 7 days relative to control
Nilaparvata lugens [40] = assay: Insecticidal activity against Nilaparvata lugens (brown planthopper) fifth-instar nymphs assessed as mortality at 0.08 ppm measured after 7 days; settings: 168 h
Nilaparvata lugens [41] = assay: Effect on oviposition in Nilaparvata lugens (brown planthopper) assessed as eggs laid at 0.00064 ppm measured after 7 days relative to control
Nilaparvata lugens [42] = assay: Insecticidal activity against Nilaparvata lugens (brown planthopper) emerged female adult assessed as mortality at 0.08 ppm measured after 7 days relative to control; settings: 168 h
Nilaparvata lugens [43] = assay: Insecticidal activity against Nilaparvata lugens (brown planthopper) emerged female adult assessed as mortality at 0.00064 ppm measured after 7 days relative to control; settings: 168 h
Nilaparvata lugens [44] = assay: Insecticidal activity against Nilaparvata lugens (brown planthopper) fifth-instar nymphs assessed as mortality at 2 ppm measured after 7 days; settings: 168 h
Nilaparvata lugens [45] = assay: Insecticidal activity against Nilaparvata lugens (brown planthopper) emerged female adult assessed as mortality at 10 ppm measured after 7 days relative to control; settings: 168 h
Nilaparvata lugens [46] = assay: Effect on hatchability in Nilaparvata lugens (brown planthopper) at 0.4 ppm measured after 7 days relative to control
Nilaparvata lugens [47] = assay: Effect on oviposition in Nilaparvata lugens (brown planthopper) assessed as eggs laid at 0.0000256 ppm measured after 7 days relative to control
Nilaparvata lugens [48] = assay: Effect on development of ovarioles in Nilaparvata lugens (brown planthopper) assessed as number of ovarioles at 0.00064 ppm measured after 7 days relative to control
Nilaparvata lugens [49] = assay: Effect on life span in Nilaparvata lugens (brown planthopper) adult at 0.00064 ppm measured after 7 days relative to control
Nilaparvata lugens [50] = assay: Insecticidal activity against Nilaparvata lugens (brown planthopper) fifth-instar nymphs assessed as mortality at 0.0000256 ppm measured after 7 days; settings: 168 h
Nilaparvata lugens [51] = assay: Insecticidal activity against Nilaparvata lugens (brown planthopper) assessed as mortality at 0.016 ppm measured after 7 days relative to control; settings: 168 h
Nilaparvata lugens [52] = assay: Insecticidal activity against Nilaparvata lugens (brown planthopper) assessed as mortality at 0.4 ppm measured after 7 days relative to control; settings: 168 h
Nilaparvata lugens [53] = assay: Insecticidal activity against Nilaparvata lugens (brown planthopper) assessed as mortality at 10 ppm measured after 7 days relative to control; settings: 168 h

CC1(C)[C@H](C(=O)O[C@H](C#N)c2cccc(Oc3ccccc3)c2)[C@@H]1C=C(Br)Br [DELTAMETHRIN]
Activity (Nilaparvata lugens [1]): 102% | mortality at 0.00064 ppm (Nilaparvata lugens [2]): 0% | Activity (Nilaparvata lugens [3]): 110% | mortality at 50 ppm (Nilaparvata lugens [4]): 100% | Activity (Nilaparvata lugens [5]): 125% | Activity (Nilaparvata lugens [6]): 101% | mortality at 2 ppm (Nilaparvata lugens [7]): 4% | mortality at 0.016 ppm (Nilaparvata lugens [8]): 9% | Activity (Nilaparvata lugens [9]): 114% | Activity (Nilaparvata lugens [10]): 128% | mortality at 2 ppm (Nilaparvata lugens [11]): 0% | mortality at 10 ppm (Nilaparvata lugens [12]): 40% | Activity (Nilaparvata lugens [13]): 98% | mortality at 0.4 ppm (Nilaparvata lugens [14]): 9% | mortality at 2.56e-05 ppm (Nilaparvata lugens [15]): 4% | Activity (Nilaparvata lugens [16]): 112% | mortality at 0.0032 ppm (Nilaparvata lugens [17]): 0% | mortality at 0.08 ppm (Nilaparvata lugens [18]): 2% | Activity (Nilaparvata lugens [19]): 136% | mortality at 0.000128 ppm (Nilaparvata lugens [20]): 0% | mortality at 0.0032 ppm (Nilaparvata lugens [21]): 0% | mortality at 50 ppm (Nilaparvata lugens [22]): 100% | mortality at 0.0032 ppm (Nilaparvata lugens [23]): 0% | Activity (Nilaparvata lugens [24]): 133% | mortality at 0.00064 ppm (Nilaparvata lugens [25]): 4% | Activity (Nilaparvata lugens [26]): 92% | mortality at 2.56e-05 ppm (Nilaparvata lugens [27]): 4% | Activity (Nilaparvata lugens [28]): 105% | mortality at 0.016 ppm (Nilaparvata lugens [29]): 0% | mortality at 0.4 ppm (Nilaparvata lugens [30]): 0% | Activity (Nilaparvata lugens [31]): 109% | Activity (Nilaparvata lugens [32]): 131% | Activity (Nilaparvata lugens [33]): 98% | mortality at 0.000128 ppm (Nilaparvata lugens [34]): 0% | Activity (Nilaparvata lugens [35]): 113% | mortality at 0.000128 ppm (Nilaparvata lugens [36]): 0% | Activity (Nilaparvata lugens [37]): 112% | Activity (Nilaparvata lugens [38]): 124% | Activity (Nilaparvata lugens [39]): 98% | mortality at 0.08 ppm (Nilaparvata lugens [40]): 2% | Activity (Nilaparvata lugens [41]): 116% | mortality at 0.08 ppm (Nilaparvata lugens [42]): 0% | mortality at 0.00064 ppm (Nilaparvata lugens [43]): 4% | mortality at 2 ppm (Nilaparvata lugens [44]): 4% | mortality at 10 ppm (Nilaparvata lugens [45]): 0% | Activity (Nilaparvata lugens [46]): 94% | Activity (Nilaparvata lugens [47]): 107% | Activity (Nilaparvata lugens [48]): 102% | Activity (Nilaparvata lugens [49]): 120% | mortality at 2.56e-05 ppm (Nilaparvata lugens [50]): 0% | mortality at 0.016 ppm (Nilaparvata lugens [51]): 9% | mortality at 0.4 ppm (Nilaparvata lugens [52]): 9% | mortality at 10 ppm (Nilaparvata lugens [53]): 40%
